Experimental data taken from ChEMBL document CHEMBL5303761, “Data for DCP probe BI-3231” (2023).

What was measured:
[1] = target: 5-hydroxytryptamine receptor 2A (Homo sapiens) (UniProt P28223); test: 5HT2AH_AGON Eurofins SafetyScreen44 (BI); conditions: filed as agonist, Compound concentration 10.0 uM
[2] = target: 5-hydroxytryptamine receptor 2B (Homo sapiens) (UniProt P41595); test: 5HT2B/H AG Eurofins SafetyScreen44 (BI); conditions: filed as agonist, Compound concentration 10.0 uM
[3] = target: 3',5'-cyclic-AMP phosphodiesterase 4D (Homo sapiens) (UniProt Q08499); test: PDE4D2 Eurofins SafetyScreen44 (BI); conditions: Compound concentration 10.0 uM
Chain of 3',5'-cyclic-AMP phosphodiesterase 4D (Homo sapiens) (Q08499 whole entry): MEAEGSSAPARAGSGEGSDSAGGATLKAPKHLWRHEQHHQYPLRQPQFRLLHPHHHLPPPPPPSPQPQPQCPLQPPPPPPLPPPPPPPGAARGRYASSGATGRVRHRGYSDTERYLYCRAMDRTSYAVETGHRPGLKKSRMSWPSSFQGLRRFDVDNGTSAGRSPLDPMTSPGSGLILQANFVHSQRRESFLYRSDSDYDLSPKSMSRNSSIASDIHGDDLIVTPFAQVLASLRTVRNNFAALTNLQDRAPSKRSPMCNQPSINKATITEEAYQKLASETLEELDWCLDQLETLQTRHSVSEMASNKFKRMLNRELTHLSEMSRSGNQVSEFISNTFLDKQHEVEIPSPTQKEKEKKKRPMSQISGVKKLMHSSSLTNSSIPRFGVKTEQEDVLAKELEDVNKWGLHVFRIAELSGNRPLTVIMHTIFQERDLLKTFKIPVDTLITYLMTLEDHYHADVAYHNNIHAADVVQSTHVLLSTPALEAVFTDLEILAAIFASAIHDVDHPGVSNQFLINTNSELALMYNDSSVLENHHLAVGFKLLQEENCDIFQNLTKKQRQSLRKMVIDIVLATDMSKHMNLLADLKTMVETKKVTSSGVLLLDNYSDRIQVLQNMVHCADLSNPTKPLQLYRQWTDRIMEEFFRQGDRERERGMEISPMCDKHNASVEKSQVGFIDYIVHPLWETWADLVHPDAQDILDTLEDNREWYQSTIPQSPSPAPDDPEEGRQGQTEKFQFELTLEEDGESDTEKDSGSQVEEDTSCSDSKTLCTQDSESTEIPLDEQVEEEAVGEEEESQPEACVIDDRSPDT

Rattus norvegicus = species on record: Rattus norvegicus; conditions: Compound concentration 10.0 uM
[4] = target: voltage-dependent K+ channel (stored as IKs; KCNQ1/KCNE1) (Rattus norvegicus, UniProt P15383+Q9Z0N7); test: K+/VOLT/RA Eurofins SafetyScreen44 (BI); assay type: protein-complex assay; conditions: rat brain, probe [125I]alpha-dendrotoxin, compound concentration 10 uM, read-out: % Ctrl
[5] = target: cGMP-inhibited 3',5'-cyclic phosphodiesterase 3A (Homo sapiens) (UniProt Q14432); test: PDE3A Eurofins SafetyScreen44 (BI); conditions: Compound concentration 10.0 uM
[6] = target: Tyrosine-protein kinase Lck (Homo sapiens) (UniProt P06239); test: LCK_CE Eurofins SafetyScreen44 (BI); conditions: Compound concentration 10.0 uM
[7] = target: Mu-type opioid receptor (Homo sapiens) (UniProt P35372); conditions: Compound concentration 10.0 uM
Chain of Mu-type opioid receptor (Homo sapiens) (P35372 whole entry): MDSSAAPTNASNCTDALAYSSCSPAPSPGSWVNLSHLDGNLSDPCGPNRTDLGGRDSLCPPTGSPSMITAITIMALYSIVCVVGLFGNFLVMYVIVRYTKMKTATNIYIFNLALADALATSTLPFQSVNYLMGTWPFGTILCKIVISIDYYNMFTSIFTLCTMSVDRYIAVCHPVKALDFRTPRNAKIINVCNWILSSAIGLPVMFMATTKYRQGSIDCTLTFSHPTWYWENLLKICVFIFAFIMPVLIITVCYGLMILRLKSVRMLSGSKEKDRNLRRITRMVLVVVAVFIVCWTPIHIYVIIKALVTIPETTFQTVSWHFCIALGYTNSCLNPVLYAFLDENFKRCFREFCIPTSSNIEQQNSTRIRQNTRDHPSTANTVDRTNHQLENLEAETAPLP

[8] = target: Histamine H4 receptor (Homo sapiens) (UniProt Q9H3N8); conditions: Compound concentration 10.0 uM
Chain of Histamine H4 receptor (Homo sapiens) (Q9H3N8 whole entry): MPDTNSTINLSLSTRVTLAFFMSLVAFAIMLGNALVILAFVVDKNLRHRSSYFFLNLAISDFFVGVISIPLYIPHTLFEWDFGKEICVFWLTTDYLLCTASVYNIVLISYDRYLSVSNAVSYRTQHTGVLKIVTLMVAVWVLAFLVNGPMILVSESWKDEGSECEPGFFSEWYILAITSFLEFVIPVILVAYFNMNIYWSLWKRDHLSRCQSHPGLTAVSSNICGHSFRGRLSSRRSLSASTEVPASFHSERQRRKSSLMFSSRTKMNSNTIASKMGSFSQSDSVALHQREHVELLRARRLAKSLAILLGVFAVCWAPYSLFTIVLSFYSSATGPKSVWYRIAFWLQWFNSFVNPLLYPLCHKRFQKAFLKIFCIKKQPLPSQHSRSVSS

[9] = target: T1, Muscarinic acetylcholine receptor M2 (Homo sapiens) (UniProt P08172); test: M2/H Eurofins SafetyScreen44 (BI); conditions: filed as antagonist, Compound concentration 10.0 uM
T1 sequence (whole entry): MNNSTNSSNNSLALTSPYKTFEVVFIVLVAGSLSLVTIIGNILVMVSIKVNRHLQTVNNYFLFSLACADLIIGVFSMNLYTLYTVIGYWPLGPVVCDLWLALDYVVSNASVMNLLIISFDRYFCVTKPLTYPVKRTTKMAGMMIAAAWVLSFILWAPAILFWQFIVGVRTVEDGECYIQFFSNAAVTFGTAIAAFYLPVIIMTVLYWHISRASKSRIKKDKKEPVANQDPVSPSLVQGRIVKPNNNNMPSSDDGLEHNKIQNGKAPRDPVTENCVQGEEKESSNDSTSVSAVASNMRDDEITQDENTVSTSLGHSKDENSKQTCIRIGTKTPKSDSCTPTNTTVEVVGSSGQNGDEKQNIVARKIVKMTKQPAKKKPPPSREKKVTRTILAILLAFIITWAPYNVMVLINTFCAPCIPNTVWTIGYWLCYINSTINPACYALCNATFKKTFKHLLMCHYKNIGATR

[10] = target: Cannabinoid receptor 2 (Homo sapiens) (UniProt P34972); test: CB2/PERIPH/H Eurofins SafetyScreen44 (BI); conditions: Compound concentration 10.0 uM
[11] = target: voltage-gated Na+ channel (site 2) (Rattus norvegicus, UniProt F1LQQ7+O08562+O88420+O88457+P04774+P04775+P08104+P15389+P15390+Q62968); test: NA+/SITE2/R Eurofins SafetyScreen44 (BI); assay type: protein assay; conditions: rat brain, probe [3H]batrachotoxinin, compound concentration 10 uM, read-out: % Ctrl
[12] = target: 5-hydroxytryptamine receptor 5A (Homo sapiens) (UniProt P47898); conditions: Compound concentration 10.0 uM
Chain of 5-hydroxytryptamine receptor 5A (Homo sapiens) (P47898 whole entry): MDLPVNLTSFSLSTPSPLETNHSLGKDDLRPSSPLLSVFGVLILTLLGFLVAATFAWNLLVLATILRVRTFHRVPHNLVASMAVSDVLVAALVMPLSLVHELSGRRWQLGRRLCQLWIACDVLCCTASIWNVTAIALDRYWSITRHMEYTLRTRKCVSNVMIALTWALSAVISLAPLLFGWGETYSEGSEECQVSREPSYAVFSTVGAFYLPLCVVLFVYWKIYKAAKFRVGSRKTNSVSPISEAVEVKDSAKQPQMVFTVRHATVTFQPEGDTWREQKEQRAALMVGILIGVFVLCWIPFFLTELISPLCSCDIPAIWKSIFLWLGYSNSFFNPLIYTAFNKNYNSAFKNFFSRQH

[13] = target: T2, Alpha-2A adrenergic receptor (Homo sapiens) (UniProt P08913); conditions: Compound concentration 10.0 uM
T2 sequence (whole entry): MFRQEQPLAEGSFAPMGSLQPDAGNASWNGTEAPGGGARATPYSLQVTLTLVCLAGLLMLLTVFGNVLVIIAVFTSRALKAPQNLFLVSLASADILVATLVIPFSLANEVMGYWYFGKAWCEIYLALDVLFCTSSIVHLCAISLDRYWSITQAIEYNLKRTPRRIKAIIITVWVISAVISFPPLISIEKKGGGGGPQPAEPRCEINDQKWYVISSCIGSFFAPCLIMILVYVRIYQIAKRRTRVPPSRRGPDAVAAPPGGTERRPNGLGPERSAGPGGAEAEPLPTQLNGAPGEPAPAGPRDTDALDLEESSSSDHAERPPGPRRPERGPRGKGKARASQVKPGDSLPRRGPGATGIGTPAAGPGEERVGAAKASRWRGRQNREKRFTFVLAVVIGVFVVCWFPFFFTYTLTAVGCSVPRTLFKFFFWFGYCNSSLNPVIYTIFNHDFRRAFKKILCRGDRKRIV

[14] = target: Beta-3 adrenergic receptor (Homo sapiens) (UniProt P13945); conditions: Compound concentration 10.0 uM
Chain of Beta-3 adrenergic receptor (Homo sapiens) (P13945 whole entry, looked up): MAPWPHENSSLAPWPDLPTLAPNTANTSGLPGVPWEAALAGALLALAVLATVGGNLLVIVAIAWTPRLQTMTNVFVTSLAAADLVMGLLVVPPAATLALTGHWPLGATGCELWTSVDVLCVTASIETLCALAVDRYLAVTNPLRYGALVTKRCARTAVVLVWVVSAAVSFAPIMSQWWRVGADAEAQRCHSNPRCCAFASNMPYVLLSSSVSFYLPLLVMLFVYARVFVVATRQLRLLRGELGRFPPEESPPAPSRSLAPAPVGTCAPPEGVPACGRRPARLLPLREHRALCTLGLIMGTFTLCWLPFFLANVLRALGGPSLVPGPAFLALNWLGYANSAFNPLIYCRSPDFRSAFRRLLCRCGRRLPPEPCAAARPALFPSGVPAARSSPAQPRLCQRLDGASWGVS

[15] = target: Alpha-1D adrenergic receptor (Homo sapiens) (UniProt P25100); conditions: Compound concentration 10.0 uM
Chain of Alpha-1D adrenergic receptor (Homo sapiens) (P25100 whole entry): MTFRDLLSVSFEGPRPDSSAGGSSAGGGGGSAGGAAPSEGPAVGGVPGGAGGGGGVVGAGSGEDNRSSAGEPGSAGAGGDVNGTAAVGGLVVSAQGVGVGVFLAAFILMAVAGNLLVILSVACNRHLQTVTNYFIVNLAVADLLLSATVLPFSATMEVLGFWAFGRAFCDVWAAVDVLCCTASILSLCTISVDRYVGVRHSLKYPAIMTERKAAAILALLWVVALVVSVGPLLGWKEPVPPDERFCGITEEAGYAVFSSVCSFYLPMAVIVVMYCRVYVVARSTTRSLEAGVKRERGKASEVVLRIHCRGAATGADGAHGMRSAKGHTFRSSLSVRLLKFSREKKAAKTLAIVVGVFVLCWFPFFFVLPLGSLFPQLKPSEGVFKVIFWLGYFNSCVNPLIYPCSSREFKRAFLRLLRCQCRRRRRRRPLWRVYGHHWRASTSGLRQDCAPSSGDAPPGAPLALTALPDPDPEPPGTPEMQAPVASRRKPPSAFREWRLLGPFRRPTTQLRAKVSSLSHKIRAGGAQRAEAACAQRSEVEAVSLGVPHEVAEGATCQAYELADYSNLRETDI

[16] = target: Glutamate NMDA receptor (Rattus norvegicus) (UniProt P35439+Q00959+Q00960+Q00961+Q62645+Q8VHN2+Q9R1M7); test: NMDA/R Eurofins SafetyScreen44 (BI); assay type: protein-complex assay; conditions: Compound concentration 10.0 uM
[17] = target: Muscarinic acetylcholine receptor M5 (Homo sapiens) (UniProt P08912); conditions: Compound concentration 10.0 uM
Chain of Muscarinic acetylcholine receptor M5 (Homo sapiens) (P08912 whole entry): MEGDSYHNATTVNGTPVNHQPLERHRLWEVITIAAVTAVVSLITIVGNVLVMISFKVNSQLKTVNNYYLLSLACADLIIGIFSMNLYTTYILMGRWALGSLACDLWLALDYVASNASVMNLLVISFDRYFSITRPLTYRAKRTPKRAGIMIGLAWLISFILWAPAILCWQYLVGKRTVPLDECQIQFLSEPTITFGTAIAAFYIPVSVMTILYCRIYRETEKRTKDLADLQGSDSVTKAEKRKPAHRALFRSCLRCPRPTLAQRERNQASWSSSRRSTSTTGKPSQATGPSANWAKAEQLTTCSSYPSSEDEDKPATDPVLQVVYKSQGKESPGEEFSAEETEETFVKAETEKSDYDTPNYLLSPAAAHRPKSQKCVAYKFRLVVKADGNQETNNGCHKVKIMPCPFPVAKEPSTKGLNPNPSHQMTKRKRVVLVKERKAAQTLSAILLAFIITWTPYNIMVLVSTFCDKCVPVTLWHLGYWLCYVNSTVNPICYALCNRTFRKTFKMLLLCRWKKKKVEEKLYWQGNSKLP

[18] = target: GABA-A receptor; anion channel (Rattus norvegicus) (UniProt O09028+P15431+P18506+P18508+P19969+P20236+P23574+P23576+P28471+P28473+P30191+P62813+P63079+P63138+Q91ZM7+Q9ES14); conditions: Compound concentration 10.0 uM
[19] = target: Histamine H2 receptor (Homo sapiens) (UniProt P25021); test: H2/APT/HS Eurofins SafetyScreen44 (BI); conditions: filed as antagonist, Compound concentration 10.0 uM
[20] = target: D(4) dopamine receptor (Homo sapiens) (UniProt P21917); conditions: Compound concentration 10.0 uM
Chain of D(4) dopamine receptor (Homo sapiens) (P21917 whole entry): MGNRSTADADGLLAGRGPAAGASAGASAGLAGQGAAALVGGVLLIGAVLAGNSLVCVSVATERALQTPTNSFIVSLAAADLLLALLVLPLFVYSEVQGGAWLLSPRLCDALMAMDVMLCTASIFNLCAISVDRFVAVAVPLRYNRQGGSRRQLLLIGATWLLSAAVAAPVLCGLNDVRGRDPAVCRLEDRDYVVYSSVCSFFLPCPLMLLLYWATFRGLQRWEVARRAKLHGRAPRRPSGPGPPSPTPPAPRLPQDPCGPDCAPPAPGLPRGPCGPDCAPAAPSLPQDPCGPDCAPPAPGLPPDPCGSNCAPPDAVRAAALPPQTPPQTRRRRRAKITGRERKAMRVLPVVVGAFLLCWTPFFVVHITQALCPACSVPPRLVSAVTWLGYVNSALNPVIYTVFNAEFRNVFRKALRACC

[21] = target: Mu-type opioid receptor (Homo sapiens) (UniProt P35372); test: MU/H Eurofins SafetyScreen44 (BI); conditions: Compound concentration 10.0 uM
[22] = target: Sodium-dependent serotonin transporter (Homo sapiens) (UniProt P31645); test: SLC6A4/H Eurofins SafetyScreen44 (BI); conditions: filed as antagonist, Compound concentration 10.0 uM
[23] = target: 5-hydroxytryptamine receptor 2B (Homo sapiens) (UniProt P41595); conditions: Compound concentration 10.0 uM
[24] = target: Beta-2 adrenergic receptor (Homo sapiens) (UniProt P07550); test: BETA2/HUM Eurofins SafetyScreen44 (BI); conditions: filed as antagonist, Compound concentration 10.0 uM
[25] = target: D(1A) dopamine receptor (Homo sapiens) (UniProt P21728); test: D1/H Eurofins SafetyScreen44 (BI); conditions: filed as antagonist, Compound concentration 10.0 uM
[26] = target: Androgen receptor (Homo sapiens) (UniProt P10275); test: ANDROGEN/H Eurofins SafetyScreen44 (BI); conditions: Compound concentration 10.0 uM
[27] = target: Angiotensin-converting enzyme (Homo sapiens) (UniProt P12821); test: ACE(HU_AMTCH400) Eurofins SafetyScreen44 (BI); conditions: Compound concentration 10.0 uM
[28] = target: Muscarinic acetylcholine receptor M3 (Homo sapiens) (UniProt P20309); conditions: Compound concentration 10.0 uM
Chain of Muscarinic acetylcholine receptor M3 (Homo sapiens) (P20309 whole entry, looked up): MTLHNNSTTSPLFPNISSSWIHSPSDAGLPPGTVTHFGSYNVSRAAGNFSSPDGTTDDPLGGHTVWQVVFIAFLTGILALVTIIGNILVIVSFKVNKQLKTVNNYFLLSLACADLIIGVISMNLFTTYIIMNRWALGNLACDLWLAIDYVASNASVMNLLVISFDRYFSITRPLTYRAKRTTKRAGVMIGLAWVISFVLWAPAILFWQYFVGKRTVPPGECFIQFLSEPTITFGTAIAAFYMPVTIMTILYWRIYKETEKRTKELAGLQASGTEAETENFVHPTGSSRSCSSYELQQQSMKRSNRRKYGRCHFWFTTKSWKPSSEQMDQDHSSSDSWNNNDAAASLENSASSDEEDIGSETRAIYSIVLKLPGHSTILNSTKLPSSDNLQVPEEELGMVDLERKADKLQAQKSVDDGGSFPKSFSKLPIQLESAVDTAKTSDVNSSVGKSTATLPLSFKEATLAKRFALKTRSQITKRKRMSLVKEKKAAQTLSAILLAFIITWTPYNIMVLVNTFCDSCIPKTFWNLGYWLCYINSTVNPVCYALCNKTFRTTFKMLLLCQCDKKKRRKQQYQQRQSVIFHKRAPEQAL

Chain of 5-hydroxytryptamine receptor 2B (Homo sapiens) (P41595 whole entry): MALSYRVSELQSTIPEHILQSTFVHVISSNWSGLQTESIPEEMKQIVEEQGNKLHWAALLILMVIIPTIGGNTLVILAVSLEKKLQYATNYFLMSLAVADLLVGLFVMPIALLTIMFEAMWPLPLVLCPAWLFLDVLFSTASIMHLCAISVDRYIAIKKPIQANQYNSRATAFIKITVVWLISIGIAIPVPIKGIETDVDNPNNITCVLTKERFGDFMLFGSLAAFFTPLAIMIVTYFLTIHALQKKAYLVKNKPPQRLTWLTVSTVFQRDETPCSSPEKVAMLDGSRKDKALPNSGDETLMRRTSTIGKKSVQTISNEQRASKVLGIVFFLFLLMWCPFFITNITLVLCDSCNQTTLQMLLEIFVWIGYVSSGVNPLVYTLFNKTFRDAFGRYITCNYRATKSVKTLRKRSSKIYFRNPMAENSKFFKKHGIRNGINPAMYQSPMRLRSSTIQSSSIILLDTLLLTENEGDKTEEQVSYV

SMILES | residual activity [1] [%] | residual activity [2] [%] | residual activity [3] [%] | inhibition (Rattus norvegicus) [%] | activity at 10 µM [4] | residual activity [5] [%] | residual activity [6] [%] | inhibition [7] [%] | inhibition [8] [%] | residual activity [9] [%] | residual activity [10] [%] | activity at 10 µM [11] | inhibition [12] [%] | inhibition [13] [%] | inhibition [14] [%] | inhibition [15] [%] | residual activity [16] [%] | inhibition [17] [%] | inhibition [18] [%] | residual activity [19] [%] | other results
CCn1c(=O)c(C)cn(Cc2nnc(-c3ccc(F)c(OC)c3F)s2)c1=O | 101 | 45 | 64 | -8.73 | 104% (not active) | 93 | 110 | 12.9 | -9.96 | 113 | 110 | 88% (not active) | 8.13 | 16.4 | 6.74 | 5.29 | 103 | 0.59 | 19.9 | 107 | inhibition [20]: 2.36%; residual activity [21]: 102%; residual activity [22]: 97%; inhibition [23]: 28.5%; residual activity [24]: 105%; residual activity [25]: 97%; residual activity [26]: 103%; residual activity [27]: 117%; inhibition [28]: -1.37%
CCn1c(=O)c(C)cn(Cc2nnc(-c3ccc(F)c(O)c3F)s2)c1=O | 84 | 83 | 68 | 23 | 103% (not active) | 94 | 91 | -0.02 | 3.99 | 106 | 98 | 73% (not active) | 4.72 | 4.94 | -4.71 | -1.34 | 104 | -6.35 | 27.6 | 105 | inhibition [20]: 9.62%; residual activity [21]: 87%; residual activity [22]: 106%; inhibition [23]: -8.82%; residual activity [24]: 99%; residual activity [25]: 105%; residual activity [26]: 102%; residual activity [27]: 99%; inhibition [28]: -3.96%
